Experiments:
[1] = molecular target: T1, PTGER2 (EP2) (Homo sapiens, UniProt P43116); test: hEP2 b-arrestin assay (PathHunter HEK 293 PTGER2 b-arrestin cells); format: cell-based; conditions: antagonistic activity, beta-arrestin assay; read-out: hEP2 b-arr IC50
T1 construct: host or cells: HEK 293 (PathHunter PTGER2 b-arrestin cell line)
Protocol: (§1) The antagonistic activities of the compounds of formula (I) on the EP2 and EP4 receptors are determined in accordance with the following experimental method.
(§2) The assay is using the PathHunter™ HEK 293 PTGER2 and PTGER4 b-arrestin cell lines from DiscoverX. The system is based on the Enzyme Fragment Complementation Technology. Two complementing fragments of the b-galactosidase enzyme are expressed within stably transfected cells. The larger portion of b-gal, termed EA for Enzyme Acceptor, is fused to the C-terminus of b-arrestin 2. The smaller fragment, termed ProLink™ tag, is fused to PTGER2 (EP2) or PTRGER4 (EP4) at the C-terminus. Upon activation, b-arrestin is recruited which forces the interaction of ProLink and EA, allowing complementation of the two fragments of b-gal and the formation of a functional enzyme which is capable of hydrolysing the substrate and generating a chemiluminescent signal.
(§3) The HEK 293 PTGER2 b-arrestin cells (DiscoverX 93-021-4C1) are detached from culture dishes with a cell dissociation buffer (Invitrogen, 13151-014), and collected in growing medium (GM: DMEM+Glutamax-I (Invitrogen 32430)/10% FCS, 1% Penicilin/streptomycin). 5000 cells per well of a 384 well plate (white with white bottom Greiner 781080) are seeded in 20 ul per well of GM. Plate is incubated at 37° C., 5% C02 for 24 hours.
(§4) Stock solutions of test compounds are made at a concentration of 10 mM in DMSO, and serially diluted in DMSO to concentrations required for inhibition dose response curves (tested concentration range 10 μM-2 nM or 1 μM-0.2 nM).
PGE2 (Cayman 14010, stock solution: 10 mM in DMSO) is used as agonist at 5 μM final concentration, corresponding to EC80.
Five microliters of diluted compounds are transferred into the assay plate. Plate is pre-incubated 15 minutes at 37° C. Then five microliters of PGE2 (final conc. 5 μM) are transferred into the assay plate. Plate is incubated 120 minutes at 37° C.
(§5) PathHunter Glo Detection Kit components are thawed and mix according to manufacturer's instructions: 1 part Galacton Star Substrate with 5 parts Emerald II™ Solution, and 19 parts of PathHunter Cell Assay Buffer, respectively. Twelve μl of reagent are transferred to the assay plate and incubate for 1 hour at room temperature in the dark. Luminescence counts are read on a BMG Fluostar Optima reader according to manufacturer's instructions.
(§6) For each compound concentration calculate of the percentage of activity compared to DMSO control value as average±STDEV. (each concentration is measured in duplicate)
(§7) IC50 values and curves are generated with XLfit software (IDBS) using Dose-Response One Site model 203. When compounds were measured multiple times, mean values are given.

[2] = molecular target: T2, PTGER4 (EP4) (Homo sapiens, UniProt P35408); test: hEP4 b-arrestin assay (PathHunter HEK 293 PTGER4 b-arrestin cells); format: cell-based; conditions: antagonistic activity, beta-arrestin assay; read-out: hEP4 b-arr IC50
T2 construct: host or cells: HEK 293 (PathHunter PTGER4 b-arrestin cell line)
Protocol: as §1, §2
as §3, with “PTGER4” for “PTGER2”, “93-030-4C1)” for “93-021-4C1)”
as §4
PGE2 (Cayman 14010, stock solution: 100 uM in DMSO) is used as agonist at 20 nM final concentration, corresponding to EC80.
Five microliters of diluted compounds are transferred into the assay plate. Plate is pre-incubated 15 minutes at 37° C. Then five microliters of PGE2 (final conc. 20 nM) are transferred into the assay plate. Plate is incubated 120 minutes at 37° C.
as §5, §6, §7

T1 sequence (P43116 whole entry): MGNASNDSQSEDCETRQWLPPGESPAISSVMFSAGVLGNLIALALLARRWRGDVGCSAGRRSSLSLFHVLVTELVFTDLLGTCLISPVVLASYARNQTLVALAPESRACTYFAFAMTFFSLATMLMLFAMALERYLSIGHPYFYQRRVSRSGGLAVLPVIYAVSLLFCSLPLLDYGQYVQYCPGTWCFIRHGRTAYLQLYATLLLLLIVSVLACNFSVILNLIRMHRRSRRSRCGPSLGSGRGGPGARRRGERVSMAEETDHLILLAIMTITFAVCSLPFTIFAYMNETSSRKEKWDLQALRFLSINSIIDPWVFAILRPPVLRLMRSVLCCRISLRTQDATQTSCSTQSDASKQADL
T2 sequence (P35408 whole entry): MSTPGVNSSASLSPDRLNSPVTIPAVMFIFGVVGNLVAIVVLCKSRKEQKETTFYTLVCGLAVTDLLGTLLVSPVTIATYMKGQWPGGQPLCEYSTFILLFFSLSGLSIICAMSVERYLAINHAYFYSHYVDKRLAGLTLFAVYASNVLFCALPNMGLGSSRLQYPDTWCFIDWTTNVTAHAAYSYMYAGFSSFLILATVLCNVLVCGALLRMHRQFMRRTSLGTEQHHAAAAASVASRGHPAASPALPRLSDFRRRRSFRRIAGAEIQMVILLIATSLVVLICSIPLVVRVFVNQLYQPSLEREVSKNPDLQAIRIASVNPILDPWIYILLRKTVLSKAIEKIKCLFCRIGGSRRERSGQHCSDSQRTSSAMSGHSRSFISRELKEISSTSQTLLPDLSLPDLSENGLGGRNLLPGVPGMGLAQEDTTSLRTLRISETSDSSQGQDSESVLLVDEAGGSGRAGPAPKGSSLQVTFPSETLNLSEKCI

| Compound | IC50 [1] [nM] | IC50 [2] [nM] |
| --- | --- | --- |
| Cc1[nH]c(-c2cc(NCCc3c(C)sc4c(C)cc(F)cc34)ncn2)cc1C(=O)O [Example 205, 5-{6-[2-(5-Fluoro-2,7-dimethyl-benzo[b]thiophen-3-yl)-ethylamino]-pyrimidin-4-yl}-2-methyl-1 H-pyrrole-3-carboxylic acid] | 74 | 771 |
| CCCc1cc(-c2cc(NCCc3c(C)sc4c(C)cc(F)cc34)ncn2)ccc1C(N)=O [Example 206, 4-{6-[2-(5-Fluoro-2,7-dimethyl-benzo[b]thiophen-3-yl)-ethylamino]-pyrimidin-4-yl}-2-propyl-benzamide] | 10 | 288 |
| CCCc1cc(-c2cc(NCCc3c(C)sc4c(C)cc(F)cc34)ncn2)ccc1C(=O)NCC(C)(C)O [Example 207, 4-{6-[2-(5-Fluoro-2,7-dimethyl-benzo[b]thiophen-3-yl)-ethylamino]-pyrimidin-4-yl}-N-(2-hydroxy-2-methyl-propyl)-2-propyl-benzamide] | 26 | 335 |
| CCCc1cc(-c2cc(NCCc3c(C)sc4c(C)cc(F)cc34)ncn2)ccc1C(=O)NCCOC [Example 208, 4-{6-[2-(5-Fluoro-2,7-dimethyl-benzo[b]thiophen-3-yl)-ethylamino]-pyrimidin-4-yl}-N-(2-methoxy-ethyl)-2-propyl-benzamide] | 62 | 837 |
| CCCc1cc(-c2cc(NCCc3c(C)sc4c(C)cc(F)cc34)ncn2)ccc1C(=O)NCCO [Example 209, 4-{6-[2-(5-Fluoro-2,7-dimethyl-benzo[b]thiophen-3-yl)-ethylamino]-pyrimidin-4-yl}-N-(2-hydroxy-ethyl)-2-propyl-benzamide] | 8 | 280 |
| CCCc1cc(-c2cc(NCCc3c(C)sc4c(C)cc(F)cc34)ncn2)ccc1C(=O)NC [Example 210, 4-{6-[2-(5-Fluoro-2,7-dimethyl-benzo[b]thiophen-3-yl)-ethylamino]-pyrimidin-4-yl}-N-methyl-2-propyl-benzamide] | 19 | 469 |
| CCOc1cc(-c2cc(NCCc3c(C)sc4c(C)cc(F)cc34)ncn2)ccc1C(=O)NCCO [Example 211, 2-Ethoxy-4-{6-[2-(5-fluoro-2,7-dimethyl-benzo[b]thiophen-3-yl)-ethylamino]-pyrimidin-4-yl}-N-(2-hydroxy-ethyl)-benzamide] | 30 | 367 |
| CCOc1cc(-c2cc(NCCc3c(C)sc4c(C)cc(F)cc34)ncn2)ccc1C(=O)NC [Example 212, 2-Ethoxy-4-{6-[2-(5-fluoro-2,7-dimethyl-benzo[b]thiophen-3-yl)-ethylamino]-pyrimidin-4-yl}-N-methyl-benzamide] | 11 | 667 |
| CCOc1cc(-c2cc(NCCc3c(C)sc4c(C)cc(F)cc34)ncn2)ccc1C(N)=O [Example 213, 2-Ethoxy-4-{6-[2-(5-fluoro-2,7-dimethyl-benzo[b]thiophen-3-yl)-ethylamino]-pyrimidin-4-yl}-benzamide] | 10 | 405 |
| Cc1sc2c(C)cc(F)cc2c1CCNc1cc(-c2cnn(C(C)(C)C(=O)O)c2)ncn1 [Example 214, 2-(4-{6-[2-(5-Fluoro-2,7-dimethyl-benzo[b]thiophen-3-yl)-ethylamino]-pyrimidin-4-yl}-pyrazol-1-yl)-2-methyl-propionic acid] | 237 | 388 |
| CCOc1cc(-c2cc(NCCc3c(C)sc4c(C)cc(F)cc34)ncn2)ccc1C1(C(=O)O)CC1 [Example 215, 1-(2-Ethoxy-4-{6-[2-(5-fluoro-2,7-dimethyl-benzo[b]thiophen-3-yl)-ethylamino]-pyrimidin-4-yl}-phenyl)-cyclopropanecarboxylic acid] | 143 | 151 |
| CCOc1c(CC(=O)O)ccc(-c2cc(NCCc3c(C)sc4c(C)cc(F)cc34)ncn2)c1F [Example 216, (2-Ethoxy-3-fluoro-4-{6-[2-(5-fluoro-2,7-dimethyl-benzo[b]thiophen-3-yl)-ethylamino]-pyrimidin-4-yl}-phenyl)-acetic acid] | 41 | 234 |
| (4-{6-[2-(2-Cyano-benzo[b]thiophen-3-yl)-ethylamino]-pyrimidin-4-yl}-2-ethoxy-phenyl)-acetic acid [Example 175] | 89 | 492 |

Further lines, results first:

| IC50 [1] [nM] | IC50 [2] [nM] | Compound |
| --- | --- | --- |
| 126 | 847 | CCOc1cc(-c2cc(NCCc3c(C)sc4c(C)cc(F)cc34)ncn2)c(F)cc1CC(=O)O [Example 217, (2-Ethoxy-5-fluoro-4-{6-[2-(5-fluoro-2,7-dimethyl-benzo[b]thiophen-3-yl)-ethylamino]-pyrimidin-4-yl}-phenyl)-acetic acid] |
| 95 | 143 | CCCc1cc(-c2cc(NCCc3c(C)sc4c(C)cc(F)cc34)ncn2)ccc1C1(C(=O)O)CC1 [Example 218, 1-(4-{6-[2-(5-Fluoro-2,7-dimethyl-benzo[b]thiophen-3-yl)-ethylamino]-pyrimidin-4-yl}-2-propyl-phenyl)-cyclopropanecarboxylic acid] |
| 41 | 211 | CCCc1cc(-c2cc(NCCc3c(C)sc4c(C)cc(F)cc34)ncn2)sc1CC(=O)O [Example 219, (5-{6-[2-(5-Fluoro-2,7-dimethyl-benzo[b]thiophen-3-yl)-ethylamino]-pyrimidin-4-yl}-3-propyl-thiophen-2-yl)-acetic acid] |
| 44 | 407 | Cc1sc2c(C)cc(F)cc2c1CCNc1cc(-c2cc(OC(F)F)c(CC(=O)O)s2)ncn1 [Example 220, (3-Difluoromethoxy-5-{6-[2-(5-fluoro-2,7-dimethyl-benzo[b]thiophen-3-yl)-ethylamino]-pyrimidin-4-yl}-thiophen-2-yl)-acetic acid] |
| 24 | 908 | Cc1sc2c(C)cc(F)cc2c1CCNc1cc(-c2cc3cccc(C(=O)O)c3[nH]2)ncn1 [Example 221, 2-{6-[2-(5-Fluoro-2,7-dimethyl-benzo[b]thiophen-3-yl)-ethylamino]-pyrimidin-4-yl}-1H-indole-7-carboxylic acid] |
| 14 | 453 | Cc1sc2c(C)cc(F)cc2c1CCNc1cc(-c2cc3cccc(C(=O)O)c3s2)ncn1 [Example 222, 2-{6-[2-(5-Fluoro-2,7-dimethyl-benzo[b]thiophen-3-yl)-ethylamino]-pyrimidin-4-yl}-benzo[b]thiophene-7-carboxylic acid] |
| 35 | 487 | COc1cc(-c2cc(NCCc3c(C)sc4c(C)cc(F)cc34)ncn2)ccc1CCC(=O)O [Example 223, 3-(4-{6-[2-(5-Fluoro-2,7-dimethyl-benzo[b]thiophen-3-yl)-ethylamino]-pyrimidin-4-yl}-2-methoxy-phenyl)-propionic acid] |
